Values of other authors in patent publication US12060328B2, “Co-crystals or salts of psilocybin and methods of treatment therewith” (RESET PHARMACEUTICALS, INC., priority 2022, dated 2024).

Conditions: cited from earlier work; for pKa (acidic) / pKa (basic): co-former property, Table 1

For `O=C1CC[C@@H](C(=O)O)N1` [L-pyroglutamic acid], the “pKa (acidic)” value is listed as 3.48.

For `NC(=O)c1ccncc1` [isonicotinamide], the “pKa (basic)” value is listed as 3.61.

For `O=C(O)[C@H](O)[C@@H](O)[C@H](O)[C@H](O)CO` [gluconic acid], the “pKa (acidic)” value is given as 3.6.

For `OC[C@@H](O)[C@@H](O)CO` [meso-erythritol], the “pKa (acidic)” value is given as 13.90.

In the case of `NC(N)=O` [urea], the “pKa (basic)” value is given as 0.10.

In the case of `CN(C)CCc1c[nH]c2cccc(OP(=O)(O)O)c12` [psilocybin, [3-(2-dimethylaminoethyl)-1H-indol-4-yl]dihydrogen phosphate], the “pKa3 (tertiary amine) (estimated)” value (reported value, estimated) is given as 10.4, the “pKa1 (1st phosphate oxygen)” value (reported value) is given as 1.3 and the “pKa2 (2nd phosphate oxygen)” value (reported value) is given as 6.5.

For `NC(CS)C(=O)O` (racemic) [DL-cysteine], the “pKa (acidic)” value is listed as 1.71 and the “pKa (basic)” value is listed as 8.33.

In the case of `NC(CO)(CO)CO` [tromethamine], the “pKa (basic)” value is given as 8.95.

In the case of `OC[C@@H](O)[C@@H](O)[C@H](O)[C@H](O)CO` [D-mannitol], the “pKa (acidic)” value is listed as 13.50.

For `CCCOC(=O)c1cc(O)c(O)c(O)c1` [propyl 3,4,5-trihydroxybenzoate], the “pKa (acidic)” value is given as 7.94.

In the case of `Cn1c(=O)c2[nH]cnc2n(C)c1=O` [theophylline], the “pKa (acidic)” value is listed as 8.81.
